Patent US10221163B2 (priority 2015, dated 2019)
Like-named read-outs stand apart in the source and are kept apart here.

Tests used:
VIM-1 = VIM-1 (Pseudomonas aeruginosa (strain ATCC 15692 / DSM 22644 / CIP 104116 / JCM 14847 / LMG 12228 / 1C / PRS 101 / PAO1), UniProt A0A0F7KYQ8); assay: biochemical; details: CCF2-FA substrate, 30 pM enzyme, 2 hours at 25° C.
Outline: (§1)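 Enzyme activity was measured by fluorescence using CCF2-FA, a cephalosporin-linked 7-hydroxycoumarin/fluorescein substrate, with inhibitor, metallo-β-lactamase and substrate incubated together for 2 hours at 25° C. IC50 came from a 4-parameter fit of inhibition versus log inhibitor concentration.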

[1] = tested on: Pseudomonas aeruginosa MB9798 vs MB9799; details: ratio MITC95 PA_9798/MITC95 PA_9799
Outline: (§2)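 Microbroth MIC tests in PAO1-background strains with fixed imipenem and/or ceftazidime, usually at the CLSI breakpoint, plus fixed class A/C β-lactamase inhibitor against AmpC. MBL inhibitor titrated; concentration restoring susceptibility recorded and compared as fold difference between efflux+ MB9798 and efflux− MB9799.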

[2] = tested on: Pseudomonas aeruginosa efflux+ (MB9798), IMP-1; type: cell-based; details: concentration restoring susceptibility to imipenem at 2 μg/mL in the presence of a class A, C, D serine β-lactamase inhibitor closely related to relebactam
Outline: as §2

[3] = tested on: Klebsiella pneumoniae expressing VIM-1 (IHMA599644); type: cell-based; details: with imipenem 1 μg/ml; 95% inhibition of bacterial growth
Outline: (§3)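 Growth by absorbance after 22–24 h at 35°C defined the read-out, with imipenem fixed at 1 μg/ml alongside compound. Inocula came from overnight blood-agar colonies at 35°C, resuspended in saline and diluted 1:100 in 1.1×CAMHB.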

[4] = tested on: Escherichia coli expressing NDM-1 (CLB30005, CLB30016); type: cell-based; details: with imipenem 1 μg/ml; 95% inhibition of bacterial growth
Outline: as §3

[5] = tested on: Serratia marcescens expressing IMP-1 (CL5741); type: cell-based; details: with imipenem 1 μg/ml; 95% inhibition of bacterial growth
Outline: as §3

NDM-1 = NDM-1 (Klebsiella pneumoniae, UniProt C7C422); assay: biochemical; type: biochemical; details: fluorescence assay, CCF2-FA substrate, 1 pM enzyme, 2 hours at 25° C.; read-out: NDM-1 IC50
NDM-1, sequence (C7C422 whole entry, looked up, species assumed): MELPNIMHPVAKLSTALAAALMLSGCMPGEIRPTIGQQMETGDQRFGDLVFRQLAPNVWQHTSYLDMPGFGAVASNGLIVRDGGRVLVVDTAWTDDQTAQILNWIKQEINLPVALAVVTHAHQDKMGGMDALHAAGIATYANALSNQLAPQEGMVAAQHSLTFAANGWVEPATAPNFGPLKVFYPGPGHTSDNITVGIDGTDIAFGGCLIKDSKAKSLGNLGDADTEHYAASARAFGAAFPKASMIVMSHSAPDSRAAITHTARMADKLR
Outline: as §1

IMP-1 = IMP-1 (Serratia marcescens, UniProt P52699); assay: biochemical; type: biochemical; details: fluorescence assay, CCF2-FA substrate, 2 pM enzyme, 2 hours at 25° C.; read-out: IMP-1 IC50
IMP-1, sequence (P52699 whole entry, looked up, species assumed): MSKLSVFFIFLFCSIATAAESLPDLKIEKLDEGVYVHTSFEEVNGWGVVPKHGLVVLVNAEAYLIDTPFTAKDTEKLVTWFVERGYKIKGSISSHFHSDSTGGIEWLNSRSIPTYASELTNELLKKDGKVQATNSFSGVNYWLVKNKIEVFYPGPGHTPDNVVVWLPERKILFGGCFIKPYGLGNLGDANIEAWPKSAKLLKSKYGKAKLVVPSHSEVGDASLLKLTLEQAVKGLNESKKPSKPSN
Outline: as §1

[6] = tested on: Pseudomonas aeruginosa efflux− (MB9799), IMP-1; type: cell-based; details: concentration restoring susceptibility to imipenem at 2 μg/mL in the presence of a class A, C, D serine β-lactamase inhibitor closely related to relebactam
Outline: as §2

[7] = fluorescence assay, read-out: VIM-1 IC50

## NC[C@H](CO)NS(=O)(=O)c1ccc(-c2cccnc2N)c(-c2nn[nH]n2)c1S(N)(=O)=O [Example 215, (R)-N1-(1-amino-3-hydroxypropan-2-yl)-4-(2-aminopyridin-3-yl)-3-(2H-tetrazol-5-yl)benzene-1,2-disulfonamide]
VIM-1; [7]
  IC50: 0.222 nM
[1]
  Efflux ratio: 1.00
[2]
  P. aeruginosa expressing IMP-1, efflux + (MB9798) MITC95: 1.563 µM
[3]
  Klebsiella pneumoniae expressing VIM-1 (IHMA599644) MITC95: 3.125 µM
[4]
  Escherichia coli expressing NDM-1 (CLB30016) MITC95: 0.1953 µM
[5]
  Serratia marcescens expressing IMP-1 (CL5741) MITC95: 0.3906 µM
NDM-1
  IC50: 0.175 nM
IMP-1
  IC50: 2.12 nM
[6]
  P. aeruginosa expressing IMP-1, efflux − (MB9799) MITC95: 1.563 µM

## Nc1ncccc1-c1ccc(S(=O)(=O)N[C@H]2C[C@@H]2N)c(S(N)(=O)=O)c1-c1nn[nH]n1 [Example 216, N1-((1S)-2-amino-cyclopropyl)-4-(2-aminopyridin-3-yl)-3-(2H-tetrazol-5-yl)benzene-1,2-disulfonamide]
VIM-1; VIM-1 IC50, fluorescence assay
  IC50: 0.269 nM
[1]
  Efflux ratio: 4.00
[2]
  P. aeruginosa expressing IMP-1, efflux + (MB9798) MITC95: 6.25 µM
[3]
  Klebsiella pneumoniae expressing VIM-1 (IHMA599644) MITC95: 3.125 µM
[4]
  Escherichia coli expressing NDM-1 (CLB30016) MITC95: 0.1953 µM
[5]
  Serratia marcescens expressing IMP-1 (CL5741) MITC95: 0.7813 µM
NDM-1
  IC50: 0.237 nM
IMP-1
  IC50: 1.83 nM
[6]
  P. aeruginosa expressing IMP-1, efflux − (MB9799) MITC95: 1.563 µM

## Nc1ccc(-c2ccc(S(=O)(=O)NCCc3ncc[nH]3)c(S(N)(=O)=O)c2-c2nn[nH]n2)cn1 [Example 218, N^1-(2-(1H-imidazol-2-yl)ethyl)-4-(6-aminopyridin-3-yl)-3-(2H-tetrazol-5-yl)benzene-1,2-disulfonamide]
VIM-1; VIM-1 IC50, fluorescence assay
  IC50: 0.549 nM
[1]
  Efflux ratio: 15.99
[2]
  P. aeruginosa expressing IMP-1, efflux + (MB9798) MITC95: 25 µM
[3]
  Klebsiella pneumoniae expressing VIM-1 (IHMA599644) MITC95: 3.125 µM
[4]
  Escherichia coli expressing NDM-1 (CLB30016) MITC95: 0.1953 µM
[5]
  Serratia marcescens expressing IMP-1 (CL5741) MITC95: 0.7813 µM
NDM-1
  IC50: 0.786 nM
IMP-1
  IC50: 0.694 nM
[6]
  P. aeruginosa expressing IMP-1, efflux − (MB9799) MITC95: 1.563 µM

## Nc1cncc(-c2ccc(S(=O)(=O)N[C@@H]3CCNC3)c(S(N)(=O)=O)c2-c2nn[nH]n2)c1 [Example 219, (R)-4-(5-aminopyridin-3-yl)-N1-(pyrrolidin-3-yl)-3-(2H-tetrazol-5-yl)benzene-1,2-disulfonamide]
VIM-1; [7]
  IC50: 0.209 nM
[1]
  Efflux ratio: 1.00
[2]
  P. aeruginosa expressing IMP-1, efflux + (MB9798) MITC95: 1.563 µM
[3]
  Klebsiella pneumoniae expressing VIM-1 (IHMA599644) MITC95: 1.563 µM
[4]
  Escherichia coli expressing NDM-1 (CLB30016) MITC95: 1.563 µM
[5]
  Serratia marcescens expressing IMP-1 (CL5741) MITC95: 1.563 µM
NDM-1
  IC50: 0.366 nM
IMP-1
  IC50: 1.93 nM
[6]
  P. aeruginosa expressing IMP-1, efflux − (MB9799) MITC95: 1.563 µM

## NS(=O)(=O)c1c(S(=O)(=O)N[C@@H]2CCNC2)ccc(-c2cccnc2N2CCNCC2)c1-c1nn[nH]n1 [Example 220, (R)-4-(2-(piperazin-1-yl)pyridin-3-yl)-N1-(pyrrolidin-3-yl)-3-(2H-tetrazol-5-yl)benzene-1,2-disulfonamide]
VIM-1; [7]
  IC50: 0.442 nM
[1]
  Efflux ratio: 4.00
[2]
  P. aeruginosa expressing IMP-1, efflux + (MB9798) MITC95: 6.25 µM
[3]
  Klebsiella pneumoniae expressing VIM-1 (IHMA599644) MITC95: 1.563 µM
[4]
  Escherichia coli expressing NDM-1 (CLB30016) MITC95: 1.563 µM
[5]
  Serratia marcescens expressing IMP-1 (CL5741) MITC95: 3.125 µM
NDM-1
  IC50: 1.57 nM
IMP-1
  IC50: 35.8 nM
[6]
  P. aeruginosa expressing IMP-1, efflux − (MB9799) MITC95: 1.563 µM

## C[C@H](CN)NS(=O)(=O)c1ccc(-c2cncc(N)c2)c(-c2nn[nH]n2)c1S(N)(=O)=O [Example 221, (R)—N1-(1-aminopropan-2-yl)-4-(5-aminopyridin-3-yl)-3-(2H-tetrazol-5-yl)benzene-1,2-disulfonamide]
VIM-1; [7]
  IC50: 0.152 nM
[1]
  Efflux ratio: 1.00
[2]
  P. aeruginosa expressing IMP-1, efflux + (MB9798) MITC95: 1.563 µM
[3]
  Klebsiella pneumoniae expressing VIM-1 (IHMA599644) MITC95: 6.25 µM
[4]
  Escherichia coli expressing NDM-1 (CLB30016) MITC95: 1.563 µM
[5]
  Serratia marcescens expressing IMP-1 (CL5741) MITC95: 1.563 µM
NDM-1
  IC50: 0.281 nM
IMP-1
  IC50: 0.688 nM
[6]
  P. aeruginosa expressing IMP-1, efflux − (MB9799) MITC95: 1.563 µM

## NC[C@H](O)CNS(=O)(=O)c1ccc(-c2ccncc2N)c(-c2nn[nH]n2)c1S(N)(=O)=O [Example 222, (S)—N1-(3-amino-2-hydroxypropyl)-4-(3-aminopyridin-4-yl)-3-(2H-tetrazol-5-yl)benzene-1,2-disulfonamide]
VIM-1; [7]
  IC50: 0.445 nM
[1]
  Efflux ratio: 1.00
[2]
  P. aeruginosa expressing IMP-1, efflux + (MB9798) MITC95: 1.563 µM
[3]
  Klebsiella pneumoniae expressing VIM-1 (IHMA599644) MITC95: 3.125 µM
[4]
  Escherichia coli expressing NDM-1 (CLB30016) MITC95: 0.3906 µM
[5]
  Serratia marcescens expressing IMP-1 (CL5741) MITC95: 1.563 µM
NDM-1
  IC50: 0.311 nM
IMP-1
  IC50: 1.19 nM
[6]
  P. aeruginosa expressing IMP-1, efflux − (MB9799) MITC95: 1.563 µM

## NC[C@H](N)CNS(=O)(=O)c1ccc(-c2cnccc2N)c(-c2nn[nH]n2)c1S(N)(=O)=O [Example 223, (S)-4-(4-aminopyridin-3-yl)-N1-(2,3-diaminopropyl)-3-(2H-tetrazol-5-yl)benzene-1,2-disulfonamide]
VIM-1; VIM-1 IC50, fluorescence assay
  IC50: 1.41 nM
[1]
  Efflux ratio: 2.00
[2]
  P. aeruginosa expressing IMP-1, efflux + (MB9798) MITC95: 1.563 µM
[3]
  Klebsiella pneumoniae expressing VIM-1 (IHMA599644) MITC95: 0.3906 µM
[4]
  Escherichia coli expressing NDM-1 (CLB30016) MITC95: 0.09766 µM
[5]
  Serratia marcescens expressing IMP-1 (CL5741) MITC95: 0.3906 µM
NDM-1
  IC50: 1.75 nM
IMP-1
  IC50: 4.51 nM
[6]
  P. aeruginosa expressing IMP-1, efflux − (MB9799) MITC95: 0.7813 µM

## NS(=O)(=O)c1c(S(=O)(=O)N[C@@H]2CCNC2)ccc(-c2cccc(-c3nc[nH]n3)c2)c1-c1nn[nH]n1 [Example 225, (R)-N4-(pyrrolidin-3-yl)-2-(2H-tetrazol-5-yl)-3′-(1H-1,2,4-triazol-3-yl)-[1,1′-biphenyl]-3,4-disulfonamide]
VIM-1; [7]
  IC50: 0.0561 nM
[1]
  Efflux ratio: 1.00
[2]
  P. aeruginosa expressing IMP-1, efflux + (MB9798) MITC95: 1.563 µM
[3]
  Klebsiella pneumoniae expressing VIM-1 (IHMA599644) MITC95: 3.125 µM
[4]
  Escherichia coli expressing NDM-1 (CLB30016) MITC95: 3.125 µM
[5]
  Serratia marcescens expressing IMP-1 (CL5741) MITC95: 1.563 µM
NDM-1
  IC50: 0.0256 nM
IMP-1
  IC50: 0.11 nM
[6]
  P. aeruginosa expressing IMP-1, efflux − (MB9799) MITC95: 1.563 µM

## N[C@@H](CO)CNS(=O)(=O)c1ccc(-c2cccc(C3N=CN=N3)c2)c(-c2nn[nH]n2)c1S(N)(=O)=O (stereo partly drawn) [Example 226, N4-((R)-2-amino-3-hydroxypropyl)-2-(2H-tetrazol-5-yl)-3′-(3H-1,2,4-triazol-3-yl)-[1,1′-biphenyl]-3,4-disulfonamide]
VIM-1; [7]
  IC50: 0.948 nM
[1]
  Efflux ratio: 2.00
[2]
  P. aeruginosa expressing IMP-1, efflux + (MB9798) MITC95: 6.25 µM
[3]
  Klebsiella pneumoniae expressing VIM-1 (IHMA599644) MITC95: 12.5 µM
[4]
  Escherichia coli expressing NDM-1 (CLB30016) MITC95: 6.25 µM
[5]
  Serratia marcescens expressing IMP-1 (CL5741) MITC95: 3.125 µM
NDM-1
  IC50: 0.747 nM
IMP-1
  IC50: 3.24 nM
[6]
  P. aeruginosa expressing IMP-1, efflux − (MB9799) MITC95: 3.125 µM

## NCC(CN)NS(=O)(=O)c1ccc(-c2cccc(-c3nc[nH]n3)c2)c(-c2nn[nH]n2)c1S(N)(=O)=O [Example 227, N4-(1,3-diaminopropan-2-yl)-2-(2H-tetrazol-5-yl)-3′-(1H-1,2,4-triazol-3-yl)-[1,1′-biphenyl]-3,4-disulfonamide]
VIM-1; [7]
  IC50: 0.137 nM
[1]
  Efflux ratio: 1.00
[2]
  P. aeruginosa expressing IMP-1, efflux + (MB9798) MITC95: 1.563 µM
[3]
  Klebsiella pneumoniae expressing VIM-1 (IHMA599644) MITC95: 3.125 µM
[4]
  Escherichia coli expressing NDM-1 (CLB30016) MITC95: 1.563 µM
[5]
  Serratia marcescens expressing IMP-1 (CL5741) MITC95: 1.563 µM
NDM-1
  IC50: 0.048 nM
IMP-1
  IC50: 0.165 nM
[6]
  P. aeruginosa expressing IMP-1, efflux − (MB9799) MITC95: 1.563 µM
